Laboratory results reported in ChEMBL document CHEMBL3885861, “Open TG-GATES”.

Species on record: Rattus norvegicus
Test: Open TG-GATES - Regimen: Daily Repeat
Type: toxicity, organism-based, Sprague-Dawley
Set-up: regimen Daily Repeat, gender Male, age 6 weeks
Settings: in vivo, po, route gavage; for APTT / Bas / Eos / Fbg / Hb / Ht / Lym / MCH / MCHC / MCV / Mono / Neu / PT / Plat / RBC / Ret / WBC: tissue Blood; for KIDNEY_L / KIDNEY_R / KIDNEY_TOTAL: tissue Kidney; for LIVER: tissue Liver; for A/G / ALP / ALT / AST / BUN / CRE / Ca / Cl / DBIL / GLC / IP / LDH / Na / PL / RALB / TBIL / TC / TG / TP / gamma-GTP: tissue Plasma
[1] = 300 mg/kg, 72 h, dose level Middle, time 3 day
[2] = 300 mg/kg, […], dose level Middle, time 7 day
[3] = 300 mg/kg, […], dose level Middle, time 14 day
[4] = 300 mg/kg, […], dose level Middle, time 28 day
[5] = 1000 mg/kg, 72 h, dose level High, time 3 day
[6] = 1000 mg/kg, […], dose level High, time 7 day
[7] = 1000 mg/kg, […], dose level High, time 14 day
[8] = 1000 mg/kg, […], dose level High, time 28 day

## NC(N)=Nc1nc(CSCCC(N)=NS(N)(=O)=O)cs1 [FAMOTIDINE]
[1]
  TERMINAL_BW: 225.8 g
  APTT: 21.2 s
  Bas: 0%
  Eos: 1%
  Fbg: 222 mg/dL
  Hb: 13.6 g/dL
  Ht: 37.4%
  Lym: 82%
  MCH: 23 pg
  MCHC: 36.3%
  MCV: 63.4 fL
  Mono: 2.6%
  Neu: 13.2%
  PT: 12 s
  Plat: 127.7 x10_4/uL
  RBC: 589.8 x10_4/ul
  Ret: 5.1%
  WBC: 106.3 x10_2/uL
  KIDNEY_L: 1 g
  KIDNEY_R: 1 g
  KIDNEY_TOTAL: 2 g
  LIVER: 10.4 g
  A/G: 1.7
  ALP: 998.8 IU/L
  ALT: 33.6 IU/L
  AST: 65 IU/L
  BUN: 14.4 mg/dL
  CRE: 0.4 mg/dL
  Ca: 10.9 mg/dL
  Cl: 102.6 meq/L
  DBIL: 0.082 mg/dL
  GLC: 186.2 mg/dL
  IP: 7.8 mg/dL
  LDH: 194.2 IU/L
  Na: 139.2 meq/L
  PL: 141.4 mg/dL
  RALB: 3.5 g/dL
  TBIL: 0.1 mg/dL
  TC: 76.2 mg/dL
  TG: 77.6 mg/dL
  TP: 5.6 g/dL
  gamma-GTP: 1.2 IU/L
[2]
  TERMINAL_BW: 261.1 g
  APTT: 20.3 s
  Bas: 0%
  Eos: 1%
  Fbg: 225 mg/dL
  Hb: 13.9 g/dL
  Ht: 38.8%
  Lym: 79.2%
  MCH: 22.1 pg
  MCHC: 35.8%
  MCV: 61.7 fL
  Mono: 2.2%
  Neu: 16%
  PT: 12 s
  Plat: 114.6 x10_4/uL
  RBC: 629.6 x10_4/ul
  Ret: 5.2%
  WBC: 85.9 x10_2/uL
  KIDNEY_L: 1.2 g
  KIDNEY_R: 1.1 g
  KIDNEY_TOTAL: 2.3 g
  LIVER: 12.6 g
  A/G: 1.5
  ALP: 921.4 IU/L
  ALT: 34.2 IU/L
  AST: 65.2 IU/L
  BUN: 15.6 mg/dL
  CRE: 0.4 mg/dL
  Ca: 10.8 mg/dL
  Cl: 103.4 meq/L
  DBIL: 0.092 mg/dL
  GLC: 192.8 mg/dL
  IP: 7.6 mg/dL
  LDH: 183.4 IU/L
  Na: 141.4 meq/L
  PL: 161 mg/dL
  RALB: 3.4 g/dL
  TBIL: 0.1 mg/dL
  TC: 83.8 mg/dL
  TG: 111.4 mg/dL
  TP: 5.7 g/dL
  gamma-GTP: 1.4 IU/L
[3]
  TERMINAL_BW: 316.2 g
  APTT: 19.7 s
  Bas: 0%
  Eos: 0.8%
  Fbg: 224 mg/dL
  Hb: 14.4 g/dL
  Ht: 42%
  Lym: 79%
  MCH: 20.9 pg
  MCHC: 34.3%
  MCV: 60.9 fL
  Mono: 2.8%
  Neu: 16%
  PT: 12.4 s
  Plat: 120.5 x10_4/uL
  RBC: 689.4 x10_4/ul
  Ret: 4.3%
  WBC: 117 x10_2/uL
  KIDNEY_L: 1.2 g
  KIDNEY_R: 1.2 g
  KIDNEY_TOTAL: 2.4 g
  LIVER: 13.4 g
  A/G: 1.6
  ALP: 907.6 IU/L
  ALT: 40.2 IU/L
  AST: 66 IU/L
  BUN: 16 mg/dL
  CRE: 0.5 mg/dL
  Ca: 10.6 mg/dL
  Cl: 103.2 meq/L
  DBIL: 0.1 mg/dL
  GLC: 208.2 mg/dL
  IP: 7.3 mg/dL
  LDH: 151.6 IU/L
  Na: 140.2 meq/L
  PL: 146.6 mg/dL
  RALB: 3.5 g/dL
  TBIL: 0.2 mg/dL
  TC: 76 mg/dL
  TG: 97.4 mg/dL
  TP: 5.7 g/dL
  gamma-GTP: 2.2 IU/L
[4]
  TERMINAL_BW: 394.2 g
  APTT: 20.2 s
  Bas: 0%
  Eos: 1.4%
  Fbg: 220.6 mg/dL
  Hb: 15.4 g/dL
  Ht: 43.3%
  Lym: 82.2%
  MCH: 20 pg
  MCHC: 35.4%
  MCV: 56.4 fL
  Mono: 1.6%
  Neu: 13.4%
  PT: 12.5 s
  Plat: 100.3 x10_4/uL
  RBC: 768.2 x10_4/ul
  Ret: 2.3%
  WBC: 116.4 x10_2/uL
  KIDNEY_L: 1.4 g
  KIDNEY_R: 1.4 g
  KIDNEY_TOTAL: 2.8 g
  LIVER: 14.9 g
  A/G: 1.3
  ALP: 609.6 IU/L
  ALT: 35.2 IU/L
  AST: 66.8 IU/L
  BUN: 16.6 mg/dL
  CRE: 0.5 mg/dL
  Ca: 10.4 mg/dL
  Cl: 103.4 meq/L
  DBIL: 0.072 mg/dL
  GLC: 217.8 mg/dL
  IP: 7 mg/dL
  LDH: 160.6 IU/L
  Na: 141 meq/L
  PL: 133 mg/dL
  RALB: 3.3 g/dL
  TBIL: 0.1 mg/dL
  TC: 68.6 mg/dL
  TG: 86.2 mg/dL
  TP: 5.9 g/dL
  gamma-GTP: 1 IU/L
[5]
  TERMINAL_BW: 226 g
  APTT: 19.5 s
  Bas: 0%
  Eos: 1%
  Fbg: 226.2 mg/dL
  Hb: 13.2 g/dL
  Ht: 36.9%
  Lym: 79%
  MCH: 21.9 pg
  MCHC: 36%
  MCV: 60.8 fL
  Mono: 2.6%
  Neu: 14.4%
  PT: 11.9 s
  Plat: 126.7 x10_4/uL
  RBC: 607 x10_4/ul
  Ret: 4.4%
  WBC: 84.8 x10_2/uL
  KIDNEY_L: 1 g
  KIDNEY_R: 1 g
  KIDNEY_TOTAL: 2 g
  LIVER: 10.4 g
  A/G: 1.5
  ALP: 917.2 IU/L
  ALT: 32.8 IU/L
  AST: 60.4 IU/L
  BUN: 15.4 mg/dL
  CRE: 0.4 mg/dL
  Ca: 10.8 mg/dL
  Cl: 104.2 meq/L
  DBIL: 0.088 mg/dL
  GLC: 179.4 mg/dL
  IP: 7.7 mg/dL
  LDH: 185.8 IU/L
  Na: 141.2 meq/L
  PL: 137.8 mg/dL
  RALB: 3.3 g/dL
  TBIL: 0.1 mg/dL
  TC: 77.6 mg/dL
  TG: 79.6 mg/dL
  TP: 5.5 g/dL
  gamma-GTP: 1 IU/L
[6]
  TERMINAL_BW: 262.1 g
  APTT: 21.5 s
  Bas: 0%
  Eos: 1.2%
  Fbg: 223.4 mg/dL
  Hb: 13.6 g/dL
  Ht: 38.2%
  Lym: 75%
  MCH: 21.5 pg
  MCHC: 35.5%
  MCV: 60.3 fL
  Mono: 2.8%
  Neu: 19.6%
  PT: 12.1 s
  Plat: 122.6 x10_4/uL
  RBC: 634.4 x10_4/ul
  Ret: 5.5%
  WBC: 107.5 x10_2/uL
  KIDNEY_L: 1.2 g
  KIDNEY_R: 1.2 g
  KIDNEY_TOTAL: 2.4 g
  LIVER: 12.2 g
  A/G: 1.5
  ALP: 987.2 IU/L
  ALT: 36.6 IU/L
  AST: 69.8 IU/L
  BUN: 14.6 mg/dL
  CRE: 0.4 mg/dL
  Ca: 10.8 mg/dL
  Cl: 103.6 meq/L
  DBIL: 0.088 mg/dL
  GLC: 183.6 mg/dL
  IP: 7.3 mg/dL
  LDH: 184 IU/L
  Na: 140.8 meq/L
  PL: 147.6 mg/dL
  RALB: 3.4 g/dL
  TBIL: 0.1 mg/dL
  TC: 79 mg/dL
  TG: 69.4 mg/dL
  TP: 5.6 g/dL
  gamma-GTP: 1 IU/L
[7]
  TERMINAL_BW: 322.6 g
  APTT: 23.4 s
  Bas: 0%
  Eos: 0.8%
  Fbg: 228 mg/dL
  Hb: 13.9 g/dL
  Ht: 40.7%
  Lym: 76.8%
  MCH: 21.2 pg
  MCHC: 34.2%
  MCV: 62 fL
  Mono: 2.2%
  Neu: 18.6%
  PT: 12.5 s
  Plat: 117.7 x10_4/uL
  RBC: 656.2 x10_4/ul
  Ret: 4.8%
  WBC: 111.7 x10_2/uL
  KIDNEY_L: 1.3 g
  KIDNEY_R: 1.3 g
  KIDNEY_TOTAL: 2.6 g
  LIVER: 14 g
  A/G: 1.5
  ALP: 838 IU/L
  ALT: 36.6 IU/L
  AST: 64.6 IU/L
  BUN: 16.4 mg/dL
  CRE: 0.5 mg/dL
  Ca: 10.8 mg/dL
  Cl: 103.4 meq/L
  DBIL: 0.078 mg/dL
  GLC: 196.6 mg/dL
  IP: 7.4 mg/dL
  LDH: 162 IU/L
  Na: 140.6 meq/L
  PL: 134.8 mg/dL
  RALB: 3.6 g/dL
  TBIL: 0.1 mg/dL
  TC: 72.4 mg/dL
  TG: 66.8 mg/dL
  TP: 5.9 g/dL
  gamma-GTP: 1.6 IU/L
[8]
  TERMINAL_BW: 376.8 g
  APTT: 21.5 s
  Bas: 0%
  Eos: 1.2%
  Fbg: 222.2 mg/dL
  Hb: 15.7 g/dL
  Ht: 44.1%
  Lym: 84.8%
  MCH: 19.7 pg
  MCHC: 35.6%
  MCV: 55.4 fL
  Mono: 1.4%
  Neu: 11%
  PT: 12.5 s
  Plat: 100.2 x10_4/uL
  RBC: 796.6 x10_4/ul
  Ret: 1.9%
  WBC: 114.1 x10_2/uL
  KIDNEY_L: 1.3 g
  KIDNEY_R: 1.3 g
  KIDNEY_TOTAL: 2.7 g
  LIVER: 14.6 g
  A/G: 1.3
  ALP: 722.6 IU/L
  ALT: 36.2 IU/L
  AST: 62.4 IU/L
  BUN: 17.4 mg/dL
  CRE: 0.6 mg/dL
  Ca: 10.3 mg/dL
  Cl: 102.8 meq/L
  DBIL: 0.076 mg/dL
  GLC: 220 mg/dL
  IP: 7 mg/dL
  LDH: 132.6 IU/L
  Na: 141.6 meq/L
  PL: 121.2 mg/dL
  RALB: 3.4 g/dL
  TBIL: 0.1 mg/dL
  TC: 62.4 mg/dL
  TG: 72.2 mg/dL
  TP: 6 g/dL
  gamma-GTP: 1.4 IU/L
